From US9371265B2, “Compositions and methods related to inhibitors of JAK kinase” (EP PHARMA, INC., priority 2012, dated 2016)

Legend:
[1] = molecular target: BRAF(V600E) (Homo sapiens, UniProt P15056, V600E); assay: Kinase panel: BRAF(V600E); type: biochemical; conditions: 10 μM EP009
Method: (§1) Achieving JAK3 selectivity remains a significant challenge in the development of new small molecules for the treatment of cancer and immune-derived diseases. As such, the inventors employed cell-based screening assays of small-molecule libraries based upon the chemical scaffold of the established JAK3 inhibitor NC1153 (Stepkowski et al., J Immunol. (2005), 175(7):4236-4246) EP009 (FIG. 2A) was selected as a lead compound due to improved intrinsic stability (>95% purity in various solvents at 37° C. for 24 hours; FIG. 3) and high-degree of JAK3 selectivity. To test JAK3 versus JAK2 specificity of EP009, the IL-2/JAK3-dependent Kit225, and IL-3/JAK2-dependent BaF/3 cell lines were used. Kit225 and BaF/3 cells growing in the presence of IL-2 or IL-3, respectively, were treated with ascending concentrations of EP009 for 12 hours and cellular JAK3 and JAK2 tyrosine phosphorylation levels detected by Western blot analysis (FIGS. 2B and 2C). Following densitometric analysis, EP009 was determined to dose-dependently reduce IL-2-mediated JAK3 tyrosine phosphorylation with a cellular 50% inhibitory concentration (IC50) between 10 and 20 μM (FIG. 2B). […] To globally evaluate specificity, the inhibitory activity of EP009 was measured against a panel of protein kinases distributed throughout the kinome using the scanEDGE profiling service (KINOMEscan). […]

[2] = test system: panel of protein kinases; assay: Protein kinase panel profiling (whole panel); type: biochemical; conditions: 10 μM EP009
Method: as §1

[3] = molecular target: PKAC-alpha (Homo sapiens, UniProt P17612); assay: Kinase panel: PKAC-alpha; type: biochemical; conditions: 10 μM EP009
Method: as §1

[4] = molecular target: PDPK1 (Homo sapiens, UniProt O15530); assay: Kinase panel: PDPK1; type: biochemical; conditions: 10 μM EP009
Method: as §1

[5] = test system: ERK1/2; assay: Phospho-ERK1/2 in SU-DHL-1 cells (Luminex multiplex); type: cell-based, human; conditions: 24 hours, dose-dependent
Method: (§2) FIGS. 8A-8F. Effect of EP009 on ALCL cells is mediated through selective activation of ERK1/2 and JNK1/2 stress signaling pathways, and inhibition of p70 S6 kinase growth signaling pathways. SU-DHL-1 cells were treated with vehicle (PBS) or increasing amounts of EP009 (0-50 μM) for 24 hours. Cells were then lysed, clarified, and subjected to Luminex multiplex analysis to detect phosphorylated (A) ERK1/2, (B) JNK1/2, (C) p70 S6 kinase, (D) IκBα, (E) CREB, and (F) p38. Values represent mean fluorescence intensity (MFI) normalized to corresponding GAPDH MFI, while error bars represent the standard deviation (n=2). Representative data from two independent experiments are shown. Statistical significance was determined using Student's t-test. (*, p<0.05).
(§3) The MILLIPLEX MAP 8-plex Multi-Pathway Signaling Phosphoprotein kit (Millipore) was used to detect phosphorylated ERK1/2 (Thr185/Tyr187), STAT3 (Ser727), JNK1/2 (Thr183/Tyr185), p70 S6 kinase (Thr412), IκBα (Ser32), STAT5A/B (Tyr694/699), CREB (Ser133), and p38 (Thr180/Tyr182). The MILLIPLEX MAP 5-plex STAT Phosphoprotein kit (Millipore) was used to detect phosphorylated STAT1 (Tyr701), STAT2 (Tyr690), STAT3 (Tyr705), STAT5A/B (Tyr694/699), and STAT6 (Tyr641). The MILLIPLEX MAP Human Apoptosis 3-plex kit (Millipore) was used to detect cleaved PARP, cleaved Caspase 3, and total GAPDH for protein normalization.

[6] = molecular target: ALK (Homo sapiens, UniProt Q9UM73); assay: Kinase panel: ALK; type: biochemical; conditions: 10 μM EP009
Method: as §1

[7] = molecular target: PLK4 (Homo sapiens, UniProt O00444); assay: Kinase panel: PLK4; type: biochemical; conditions: 10 μM EP009
Method: as §1

[8] = molecular target: JNK3 (Homo sapiens, UniProt P53779); assay: Kinase panel: JNK3; type: biochemical; conditions: 10 μM EP009
Method: as §1

[9] = molecular target: CDK11 (Homo sapiens, UniProt Q9BWU1); assay: Kinase panel: CDK11; type: biochemical; conditions: 10 μM EP009
Method: as §1

[10] = molecular target: CDK7 (Homo sapiens, UniProt P50613); assay: Kinase panel: CDK7; type: biochemical; conditions: 10 μM EP009
Method: as §1

[11] = molecular target: PIM1 (Homo sapiens, UniProt P11309); assay: Kinase panel: PIM1; type: biochemical; conditions: 10 μM EP009
Method: as §1

[12] = molecular target: CSNK1G2 (Homo sapiens, UniProt P78368); assay: Kinase panel: CSNK1G2; type: biochemical; conditions: 10 μM EP009
Method: as §1

[13] = molecular target: ACVR1B (Homo sapiens, UniProt P36896); assay: Kinase panel: ACVR1B; type: biochemical; conditions: 10 μM EP009
Method: as §1

[14] = Stability in mouse plasma (LC-MS/MS); type: in vitro ADME; conditions: indicated concentrations and incubation time points
Method: FIG. 11 illustrates the dose-dependent effect of (FIG. 11A) freshly prepared EP-009(P) and (FIG. 11B) EP-009(P) stored in aqueous conditions for 48 hr at room temperature on IL-2/JAK3-dependent Kit225 cell viability. FIG. 12 illustrates LC-MS/MS detection of EP-009 (5 ng/ml) in mouse plasma at a retention time of 1.91 min.

[15] = molecular target: FGFR3 (Homo sapiens, UniProt P22607); assay: Kinase panel: FGFR3; type: biochemical; conditions: 10 μM EP009
Method: as §1

[16] = test system: p70 S6 kinase; assay: Phospho-p70 S6 kinase in SU-DHL-1 cells (Luminex multiplex); type: cell-based, human; conditions: 24 hours
Method: as §2, §3

PLK4, sequence (O00444 whole entry): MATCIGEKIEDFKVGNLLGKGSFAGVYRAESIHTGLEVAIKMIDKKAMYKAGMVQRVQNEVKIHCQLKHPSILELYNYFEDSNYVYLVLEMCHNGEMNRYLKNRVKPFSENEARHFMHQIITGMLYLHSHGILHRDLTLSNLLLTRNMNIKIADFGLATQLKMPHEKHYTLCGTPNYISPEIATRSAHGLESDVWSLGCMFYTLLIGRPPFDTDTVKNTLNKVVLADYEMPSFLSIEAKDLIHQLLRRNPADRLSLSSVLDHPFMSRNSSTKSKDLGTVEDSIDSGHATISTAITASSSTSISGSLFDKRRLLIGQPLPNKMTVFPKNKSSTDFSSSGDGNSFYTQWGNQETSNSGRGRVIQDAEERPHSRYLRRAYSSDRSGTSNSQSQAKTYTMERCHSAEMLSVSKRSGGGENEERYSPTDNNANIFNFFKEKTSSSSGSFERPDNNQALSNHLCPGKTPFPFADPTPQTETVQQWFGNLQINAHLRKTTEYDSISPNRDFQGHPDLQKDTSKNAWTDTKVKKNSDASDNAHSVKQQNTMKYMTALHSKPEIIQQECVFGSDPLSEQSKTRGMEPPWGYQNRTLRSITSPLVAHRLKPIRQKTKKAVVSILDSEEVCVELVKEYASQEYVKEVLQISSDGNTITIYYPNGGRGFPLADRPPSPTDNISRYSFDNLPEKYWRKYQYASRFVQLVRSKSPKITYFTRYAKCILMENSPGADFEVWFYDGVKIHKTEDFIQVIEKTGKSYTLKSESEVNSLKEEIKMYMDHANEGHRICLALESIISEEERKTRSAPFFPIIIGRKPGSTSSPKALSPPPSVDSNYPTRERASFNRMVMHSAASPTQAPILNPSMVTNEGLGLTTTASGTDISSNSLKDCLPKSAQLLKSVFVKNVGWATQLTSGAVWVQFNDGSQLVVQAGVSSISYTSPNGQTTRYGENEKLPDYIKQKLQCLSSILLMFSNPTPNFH
CDK11, sequence (Q9BWU1 whole entry): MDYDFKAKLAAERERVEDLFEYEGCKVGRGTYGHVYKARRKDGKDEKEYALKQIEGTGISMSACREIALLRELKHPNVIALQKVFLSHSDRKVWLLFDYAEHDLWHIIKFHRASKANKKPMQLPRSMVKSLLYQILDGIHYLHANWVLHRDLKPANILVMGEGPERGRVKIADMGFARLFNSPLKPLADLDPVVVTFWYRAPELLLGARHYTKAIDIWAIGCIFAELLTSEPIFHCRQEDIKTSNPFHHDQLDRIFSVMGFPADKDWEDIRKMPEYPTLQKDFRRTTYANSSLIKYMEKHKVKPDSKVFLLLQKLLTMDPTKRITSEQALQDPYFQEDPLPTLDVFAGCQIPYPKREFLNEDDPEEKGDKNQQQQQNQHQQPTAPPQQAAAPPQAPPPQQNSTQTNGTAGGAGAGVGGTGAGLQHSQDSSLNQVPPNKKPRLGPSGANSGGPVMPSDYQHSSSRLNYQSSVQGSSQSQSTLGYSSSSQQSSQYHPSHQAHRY
CSNK1G2, sequence (P78368 whole entry): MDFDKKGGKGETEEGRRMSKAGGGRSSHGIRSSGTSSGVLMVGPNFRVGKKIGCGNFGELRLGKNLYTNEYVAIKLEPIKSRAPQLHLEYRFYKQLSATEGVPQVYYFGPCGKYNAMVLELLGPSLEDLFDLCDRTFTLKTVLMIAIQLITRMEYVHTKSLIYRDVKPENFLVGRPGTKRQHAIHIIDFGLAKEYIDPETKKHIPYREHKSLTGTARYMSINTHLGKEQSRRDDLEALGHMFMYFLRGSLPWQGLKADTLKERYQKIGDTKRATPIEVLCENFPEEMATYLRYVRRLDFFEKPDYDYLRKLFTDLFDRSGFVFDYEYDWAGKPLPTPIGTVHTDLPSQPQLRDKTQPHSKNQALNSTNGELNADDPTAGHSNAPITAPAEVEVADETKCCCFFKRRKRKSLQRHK
PIM1, sequence (P11309 whole entry): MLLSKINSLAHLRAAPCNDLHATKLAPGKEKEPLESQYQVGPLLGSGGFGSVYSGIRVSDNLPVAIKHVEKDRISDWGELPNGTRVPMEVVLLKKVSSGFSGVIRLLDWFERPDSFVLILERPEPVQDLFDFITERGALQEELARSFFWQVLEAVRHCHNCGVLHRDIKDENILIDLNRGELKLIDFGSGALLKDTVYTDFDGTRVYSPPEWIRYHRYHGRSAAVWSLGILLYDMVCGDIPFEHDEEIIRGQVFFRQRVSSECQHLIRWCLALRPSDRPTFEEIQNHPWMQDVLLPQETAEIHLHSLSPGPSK
ACVR1B, sequence (P36896 24-505): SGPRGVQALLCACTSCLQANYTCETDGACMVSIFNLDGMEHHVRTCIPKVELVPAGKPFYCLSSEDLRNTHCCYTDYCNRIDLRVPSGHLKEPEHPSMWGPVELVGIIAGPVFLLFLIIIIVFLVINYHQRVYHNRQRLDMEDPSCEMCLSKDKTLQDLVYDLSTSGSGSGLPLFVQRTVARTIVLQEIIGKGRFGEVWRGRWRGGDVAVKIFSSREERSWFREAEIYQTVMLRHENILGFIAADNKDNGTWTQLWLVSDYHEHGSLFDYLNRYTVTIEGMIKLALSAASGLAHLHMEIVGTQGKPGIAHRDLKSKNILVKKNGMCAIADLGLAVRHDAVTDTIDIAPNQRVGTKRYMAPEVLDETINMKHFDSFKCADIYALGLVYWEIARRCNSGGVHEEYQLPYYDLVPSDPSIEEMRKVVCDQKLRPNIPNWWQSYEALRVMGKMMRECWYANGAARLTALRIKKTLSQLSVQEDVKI
CDK7, sequence (P50613 whole entry): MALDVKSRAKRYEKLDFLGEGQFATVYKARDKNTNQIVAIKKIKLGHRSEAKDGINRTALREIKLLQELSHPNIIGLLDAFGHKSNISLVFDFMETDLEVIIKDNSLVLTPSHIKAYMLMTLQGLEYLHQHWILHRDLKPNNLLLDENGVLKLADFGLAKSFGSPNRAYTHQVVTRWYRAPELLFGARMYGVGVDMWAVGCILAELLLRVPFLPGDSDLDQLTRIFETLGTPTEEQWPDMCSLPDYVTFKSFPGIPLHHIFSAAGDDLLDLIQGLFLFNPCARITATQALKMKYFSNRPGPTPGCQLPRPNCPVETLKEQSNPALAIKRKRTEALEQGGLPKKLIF
FGFR3, sequence (P22607 23-806): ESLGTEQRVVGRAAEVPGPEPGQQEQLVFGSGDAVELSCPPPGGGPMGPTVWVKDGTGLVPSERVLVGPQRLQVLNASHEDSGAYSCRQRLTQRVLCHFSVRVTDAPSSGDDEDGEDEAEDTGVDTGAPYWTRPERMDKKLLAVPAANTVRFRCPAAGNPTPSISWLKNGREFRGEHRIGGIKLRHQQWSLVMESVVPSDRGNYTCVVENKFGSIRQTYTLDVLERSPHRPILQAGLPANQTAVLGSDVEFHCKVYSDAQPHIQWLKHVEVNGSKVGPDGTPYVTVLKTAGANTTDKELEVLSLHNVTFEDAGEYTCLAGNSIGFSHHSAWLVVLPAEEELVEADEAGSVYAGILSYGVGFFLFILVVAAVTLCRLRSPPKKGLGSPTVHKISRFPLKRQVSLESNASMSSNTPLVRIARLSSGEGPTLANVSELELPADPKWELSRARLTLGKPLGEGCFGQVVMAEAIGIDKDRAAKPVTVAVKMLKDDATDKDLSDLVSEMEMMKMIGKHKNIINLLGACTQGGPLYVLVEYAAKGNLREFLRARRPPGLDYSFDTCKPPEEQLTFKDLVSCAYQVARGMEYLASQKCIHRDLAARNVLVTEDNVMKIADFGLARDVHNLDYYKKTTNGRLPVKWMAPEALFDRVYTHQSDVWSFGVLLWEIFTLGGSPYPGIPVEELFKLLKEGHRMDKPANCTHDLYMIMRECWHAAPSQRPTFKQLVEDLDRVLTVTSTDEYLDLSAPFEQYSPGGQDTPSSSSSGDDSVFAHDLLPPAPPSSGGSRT
BRAF(V600E), sequence (P15056 whole entry V600E): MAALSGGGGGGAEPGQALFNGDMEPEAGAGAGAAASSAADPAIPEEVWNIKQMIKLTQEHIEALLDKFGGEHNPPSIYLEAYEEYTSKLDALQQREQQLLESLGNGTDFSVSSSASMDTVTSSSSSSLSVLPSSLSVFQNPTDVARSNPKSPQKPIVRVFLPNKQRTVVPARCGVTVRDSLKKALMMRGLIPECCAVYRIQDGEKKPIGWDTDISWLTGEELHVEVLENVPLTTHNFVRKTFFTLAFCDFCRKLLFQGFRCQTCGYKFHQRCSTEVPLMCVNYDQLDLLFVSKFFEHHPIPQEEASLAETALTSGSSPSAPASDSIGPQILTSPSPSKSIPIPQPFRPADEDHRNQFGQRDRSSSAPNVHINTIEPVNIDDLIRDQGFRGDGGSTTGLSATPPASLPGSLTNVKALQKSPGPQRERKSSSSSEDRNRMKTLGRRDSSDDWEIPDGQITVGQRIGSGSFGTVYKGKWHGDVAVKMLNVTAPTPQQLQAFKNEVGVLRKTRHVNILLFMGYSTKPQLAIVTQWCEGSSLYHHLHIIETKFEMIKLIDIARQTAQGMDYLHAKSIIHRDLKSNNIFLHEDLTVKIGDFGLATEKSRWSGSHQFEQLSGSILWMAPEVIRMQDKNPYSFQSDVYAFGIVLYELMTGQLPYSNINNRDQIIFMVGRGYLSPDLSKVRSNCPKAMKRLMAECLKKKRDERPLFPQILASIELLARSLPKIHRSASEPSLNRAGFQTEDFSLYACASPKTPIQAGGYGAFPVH

SMILES: C=C1CCCCCCCCCC(CO)C1=O (centres unmarked) [EP009, 2-(Hydroxymethyl)-12-methylenecyclododecanone]
- Kinase Activity (% of Control) [1]: 76 % of Control
- inhibition against the kinases tested [2]: < 50%
- Kinase Activity (% of Control) [3]: 100 % of Control
- Kinase Activity (% of Control) [4]: 100 % of Control
- ERK1/2 phosphorylation [5]: induced phosphorylation and activation
- Kinase Activity (% of Control) [6]: 100 % of Control
- inhibition of Polo-like kinase 4 (PLK4) [7]: 47 % inhibition
- Kinase Activity (% of Control) ([7]; PLK4): 53 % of Control
- Kinase Activity (% of Control) [8]: 100 % of Control
- Kinase Activity (% of Control) [9]: 100 % of Control
- Kinase Activity (% of Control) [10]: 99 % of Control
- Kinase Activity (% of Control) [11]: 100 % of Control
- Kinase Activity (% of Control) [12]: 100 % of Control
- Kinase Activity (% of Control) [13]: 96 % of Control
- stability in mouse plasma [14]: stable and readily detected
- Kinase Activity (% of Control) [15]: 100 % of Control
- constitutive phosphorylation of p70 S6 kinase [16]: decreased in a dose-dependent manner
